Key:
Assay type in all cases: in vivo
[1] = system: barnyardgrass (Echinochloa crus-galli); experiment: Test G Pre-Emergence Protocol; conditions: Echinochloa crus-galli, pre-emergence, 312 h, evaluated after 13 days; for pest or weed control at 15.625 g/ha: 15.625 g ai/ha, read-out: Barnyard grass damage rating (100=total damage to plant; 0=no damage to plant); for pest or weed control at 62.5 g/ha: 62.5 g ai/ha, 100=total damage to plant, 0=no damage to plant, read-out: plant damage rating, Barnyardgrass; for pest or weed control at 250 g/ha: 250 g ai/ha, read-out: Barnyardgrass damage rating (100=total damage to plant; 0=no damage to plant)
Summary of the method: (§1)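 Pre-emergence spray, 15.625/62.5/250 g/ha, vehicle acetone:water 50:50 + 0.5% Tween 20, applied 1 d after sowing. Glasshouse 24/16° C, 14 h light, 65% RH, watered twice daily. Visual damage rating at 13 d, 0–100 scale.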

corn (Zea mays) [2] = experiment: Test G Pre-Emergence Protocol; conditions: Zea mays, pre-emergence, 312 h, evaluated after 13 days; for plant injury at 15.625 g/ha: 15.625 g ai/ha; for plant injury at 15.625 g/ha / plant injury at 250 g/ha: read-out: Corn damage rating (100=total damage to plant; 0=no damage to plant); for plant injury at 62.5 g/ha: 62.5 g ai/ha, 100=total damage to plant, 0=no damage to plant, read-out: plant damage rating, Corn; for plant injury at 250 g/ha: 250 g ai/ha
Summary of the method: as §1

[3] = system: giant foxtail (Setaria faberi); experiment: Test G Pre-Emergence Protocol; conditions: Setaria faberi, pre-emergence, 312 h, evaluated after 13 days; for pest or weed control at 15.625 g/ha: 15.625 g ai/ha; for pest or weed control at 15.625 g/ha / pest or weed control at 250 g/ha: read-out: Foxtail, Giant damage rating (100=total damage to plant; 0=no damage to plant); for pest or weed control at 62.5 g/ha: 62.5 g ai/ha, 100=total damage to plant, 0=no damage to plant, read-out: plant damage rating, Foxtail, Giant; for pest or weed control at 250 g/ha: 250 g ai/ha
Summary of the method: as §1

[4] = system: ivy-leaved morning glory (Ipomoea hederacea); experiment: Test G Pre-Emergence Protocol; conditions: Ipomoea, pre-emergence, 312 h, evaluated after 13 days; for pest or weed control at 15.625 g/ha: 15.625 g ai/ha, read-out: Morning-glory, Ivy-leaved damage rating (100=total damage to plant; 0=no damage to plant); for pest or weed control at 62.5 g/ha: 62.5 g ai/ha, 100=total damage to plant, 0=no damage to plant, read-out: plant damage rating, Morningglory, Ivy-leaved; for pest or weed control at 250 g/ha: 250 g ai/ha, read-out: Morningglory, Ivy-leaved damage rating (100=total damage to plant; 0=no damage to plant)
Summary of the method: as §1

[5] = system: redroot pigweed (Amaranthus retroflexus); experiment: Test G Pre-Emergence Protocol; conditions: Amaranthus retroflexus, pre-emergence, 312 h, evaluated after 13 days; for pest or weed control at 15.625 g/ha: 15.625 g ai/ha; for pest or weed control at 15.625 g/ha / pest or weed control at 250 g/ha: read-out: Pigweed, Redroot damage rating (100=total damage to plant; 0=no damage to plant); for pest or weed control at 62.5 g/ha: 62.5 g ai/ha, 100=total damage to plant, 0=no damage to plant, read-out: plant damage rating, Pigweed, Redroot; for pest or weed control at 250 g/ha: 250 g ai/ha
Summary of the method: as §1

[6] = system: velvetleaf (Abutilon theophrasti); experiment: Test G Pre-Emergence Protocol; conditions: Abutilon theophrasti, pre-emergence, 312 h, evaluated after 13 days; for pest or weed control at 15.625 g/ha: 15.625 g ai/ha; for pest or weed control at 15.625 g/ha / pest or weed control at 250 g/ha: read-out: Velvetleaf damage rating (100=total damage to plant; 0=no damage to plant); for pest or weed control at 62.5 g/ha: 62.5 g ai/ha, 100=total damage to plant, 0=no damage to plant, read-out: plant damage rating, Velvetleaf; for pest or weed control at 250 g/ha: 250 g ai/ha
Summary of the method: as §1

[7] = system: barnyardgrass (Echinochloa crus-galli); experiment: Test G Post-Emergence Protocol; conditions: Echinochloa crus-galli, post-emergence, 312 h; for pest or weed control at 15.625 g/ha: 15.625 g ai/ha, evaluated after 13 days (100=total damage to plant; 0=no damage to plant), read-out: Barnyardgrass damage rating; for pest or weed control at 62.5 g/ha: 62.5 g ai/ha, read-out: Barnyardgrass damage rating (100=total damage to plant; 0=no damage to plant); for pest or weed control at 62.5 g/ha / pest or weed control at 250 g/ha: evaluated after 13 days; for pest or weed control at 250 g/ha: 250 g ai/ha, read-out: damage to plant, Barnyardgrass (100=total damage to plant; 0=no damage to plant)
Summary of the method: (§2)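 Damage was rated 13 days after treatment from 0 (none) to 100 (plant killed). Compound was applied as a spray at 15.625, 62.5 or 250 g/ha in 50:50 acetone/water containing 0.5% Tween 20, onto 8-day-old potted plants kept in a glasshouse (24/16 °C, 14 h light, 65% humidity).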

corn (Zea mays) [8] = experiment: Test G Post-Emergence Protocol; conditions: Zea mays, post-emergence, 312 h; for plant injury at 15.625 g/ha: 15.625 g ai/ha, evaluated after 13 days (100=total damage to plant; 0=no damage to plant), read-out: Corn damage rating; for plant injury at 62.5 g/ha: 62.5 g ai/ha, read-out: Corn damage rating (100=total damage to plant; 0=no damage to plant); for plant injury at 62.5 g/ha / plant injury at 250 g/ha: evaluated after 13 days; for plant injury at 250 g/ha: 250 g ai/ha, read-out: damage to plant, Corn (100=total damage to plant; 0=no damage to plant)
Summary of the method: as §2

[9] = system: giant foxtail (Setaria faberi); experiment: Test G Post-Emergence Protocol; conditions: Setaria faberi, post-emergence, 312 h; for pest or weed control at 15.625 g/ha: 15.625 g ai/ha, evaluated after 13 days (100=total damage to plant; 0=no damage to plant), read-out: Foxtail, Giant damage rating; for pest or weed control at 62.5 g/ha: 62.5 g ai/ha, read-out: Foxtail, Giant damage rating (100=total damage to plant; 0=no damage to plant); for pest or weed control at 62.5 g/ha / pest or weed control at 250 g/ha: evaluated after 13 days; for pest or weed control at 250 g/ha: 250 g ai/ha, read-out: damage to plant, Foxtail, Giant (100=total damage to plant; 0=no damage to plant)
Summary of the method: as §2

[10] = system: ivy-leaved morning glory (Ipomoea hederacea); experiment: Test G Post-Emergence Protocol; conditions: Ipomoea, post-emergence, 312 h; for pest or weed control at 15.625 g/ha: 15.625 g ai/ha, evaluated after 13 days (100=total damage to plant; 0=no damage to plant), read-out: Morningglory, Ivy-leaved damage rating; for pest or weed control at 62.5 g/ha: 62.5 g ai/ha, read-out: Morningglory, Ivy-leaved damage rating (100=total damage to plant; 0=no damage to plant); for pest or weed control at 62.5 g/ha / pest or weed control at 250 g/ha: evaluated after 13 days; for pest or weed control at 250 g/ha: 250 g ai/ha, read-out: damage to plant, Morningglory, Ivy-leaved (100=total damage to plant; 0=no damage to plant)
Summary of the method: as §2

[11] = system: redroot pigweed (Amaranthus retroflexus); experiment: Test G Post-Emergence Protocol; conditions: Amaranthus retroflexus, post-emergence, 312 h; for pest or weed control at 15.625 g/ha: 15.625 g ai/ha, evaluated after 13 days (100=total damage to plant; 0=no damage to plant), read-out: Pigweed, Redroot damage rating; for pest or weed control at 62.5 g/ha: 62.5 g ai/ha, read-out: Pigweed, Redroot damage rating (100=total damage to plant; 0=no damage to plant); for pest or weed control at 62.5 g/ha / pest or weed control at 250 g/ha: evaluated after 13 days; for pest or weed control at 250 g/ha: 250 g ai/ha, read-out: damage to plant, Pigweed, Redroot (100=total damage to plant; 0=no damage to plant)
Summary of the method: as §2

[12] = system: velvetleaf (Abutilon theophrasti); experiment: Test G Post-Emergence Protocol; conditions: Abutilon theophrasti, post-emergence, 312 h; for pest or weed control at 15.625 g/ha: 15.625 g ai/ha, evaluated after 13 days (100=total damage to plant; 0=no damage to plant), read-out: Velvetleaf damage rating; for pest or weed control at 62.5 g/ha: 62.5 g ai/ha, read-out: Velvetleaf damage rating (100=total damage to plant; 0=no damage to plant); for pest or weed control at 62.5 g/ha / pest or weed control at 250 g/ha: evaluated after 13 days; for pest or weed control at 250 g/ha: 250 g ai/ha, read-out: damage to plant, Velvetleaf (100=total damage to plant; 0=no damage to plant)
Summary of the method: as §2

| Compound | pest or weed control at 15.625 g/ha [1] [%] | pest or weed control at 62.5 g/ha [1] [%] | pest or weed control at 250 g/ha [1] [%] | plant injury at 15.625 g/ha (corn (Zea mays) [2]) [%] | plant injury at 62.5 g/ha (corn (Zea mays) [2]) [%] | plant injury at 250 g/ha (corn (Zea mays) [2]) [%] | pest or weed control at 15.625 g/ha [3] [%] | pest or weed control at 62.5 g/ha [3] [%] | pest or weed control at 250 g/ha [3] [%] | pest or weed control at 15.625 g/ha [4] [%] | pest or weed control at 62.5 g/ha [4] [%] | pest or weed control at 250 g/ha [4] [%] | pest or weed control at 15.625 g/ha [5] [%] | pest or weed control at 62.5 g/ha [5] [%] | pest or weed control at 250 g/ha [5] [%] | pest or weed control at 15.625 g/ha [6] [%] | pest or weed control at 62.5 g/ha [6] [%] | pest or weed control at 250 g/ha [6] [%] | pest or weed control at 15.625 g/ha [7] [%] | pest or weed control at 62.5 g/ha [7] [%] | also measured |
| --- | --- | --- | --- | --- | --- | --- | --- | --- | --- | --- | --- | --- | --- | --- | --- | --- | --- | --- | --- | --- | --- |
| CN1C[C@@H](c2ccc(C(F)(F)F)cc2)[C@H](C(=O)Nc2cc(F)ncn2)C1=O (racemic) [Compound 1509] | 0 | 0 | 0 | 0 | 0 | 0 | 0 | 0 | 0 | 0 | 0 | 0 | 0 | 0 | 0 | 0 | 0 | 0 | 0 | 0 | pest or weed control at 250 g/ha [7]: 0%; plant injury at 15.625 g/ha (corn (Zea mays) [8]): 0%; plant injury at 62.5 g/ha (corn (Zea mays) [8]): 0%; plant injury at 250 g/ha (corn (Zea mays) [8]): 0%; pest or weed control at 15.625 g/ha [9]: 0%; pest or weed control at 62.5 g/ha [9]: 0%; pest or weed control at 250 g/ha [9]: 0%; pest or weed control at 15.625 g/ha [10]: 0%; pest or weed control at 62.5 g/ha [10]: 0%; pest or weed control at 250 g/ha [10]: 0%; pest or weed control at 15.625 g/ha [11]: 0%; pest or weed control at 62.5 g/ha [11]: 0%; pest or weed control at 250 g/ha [11]: 0%; pest or weed control at 15.625 g/ha [12]: 0%; pest or weed control at 62.5 g/ha [12]: 0%; pest or weed control at 250 g/ha [12]: 0% |
| CN1C[C@H](c2ccc(C(F)(F)F)cc2)[C@@H](C(=O)Nc2cccc(C(F)F)c2)C1=O (racemic) [Compound 1498] | 0 | 0 | 20 | 0 | 0 | 0 | 0 | 0 | 10 | 0 | 0 | 0 | 0 | 0 | 0 | 0 | 0 | 0 | 0 | 0 | pest or weed control at 250 g/ha [7]: 30%; plant injury at 15.625 g/ha (corn (Zea mays) [8]): 0%; plant injury at 62.5 g/ha (corn (Zea mays) [8]): 0%; plant injury at 250 g/ha (corn (Zea mays) [8]): 0%; pest or weed control at 15.625 g/ha [9]: 0%; pest or weed control at 62.5 g/ha [9]: 0%; pest or weed control at 250 g/ha [9]: 30%; pest or weed control at 15.625 g/ha [10]: 0%; pest or weed control at 62.5 g/ha [10]: 0%; pest or weed control at 250 g/ha [10]: 0%; pest or weed control at 15.625 g/ha [11]: 0%; pest or weed control at 62.5 g/ha [11]: 0%; pest or weed control at 250 g/ha [11]: 0%; pest or weed control at 15.625 g/ha [12]: 0%; pest or weed control at 62.5 g/ha [12]: 0%; pest or weed control at 250 g/ha [12]: 0% |

— patent publication US12077503B2, “Substituted cyclic amides and their use as herbicides” (FMC CORPORATION, priority 2015, dated 2024)
